ΔTm and IC50 data for two compounds are collected here from ChEMBL document CHEMBL4715790, “An Unusual Binding Model of the Methyl 9-Anilinothiazolo[5,4-f] quinazoline-2-carbimidates (EHT 1610 and EHT 5372) Confers High Selectivity for Dual-Specificity Tyrosine Phosphorylation-Regulated Kinases” (J Med Chem, 2016).

What is called ΔTm is the shift of the melting midpoint relative to a reference. A word on the IC50: it is the midpoint of a concentration-inhibition curve.

Assay [1] has as its target Dual specificity tyrosine-phosphorylation-regulated kinase 1A (Homo sapiens) (UniProt Q13627). Description: Binding affinity to 6x-His-tagged DYRK1A (unknown origin) assessed as change in melting temperature of protein at 10 uM by Sypro-orange dye based DSF assay. On the technique in general: DSF heats the sample and reads unfolding from a dye or from intrinsic fluorescence.

In assay [2] the target is T1, Dual specificity tyrosine-phosphorylation-regulated kinase 2 (Homo sapiens) (UniProt Q92630).
T1 sequence (whole entry): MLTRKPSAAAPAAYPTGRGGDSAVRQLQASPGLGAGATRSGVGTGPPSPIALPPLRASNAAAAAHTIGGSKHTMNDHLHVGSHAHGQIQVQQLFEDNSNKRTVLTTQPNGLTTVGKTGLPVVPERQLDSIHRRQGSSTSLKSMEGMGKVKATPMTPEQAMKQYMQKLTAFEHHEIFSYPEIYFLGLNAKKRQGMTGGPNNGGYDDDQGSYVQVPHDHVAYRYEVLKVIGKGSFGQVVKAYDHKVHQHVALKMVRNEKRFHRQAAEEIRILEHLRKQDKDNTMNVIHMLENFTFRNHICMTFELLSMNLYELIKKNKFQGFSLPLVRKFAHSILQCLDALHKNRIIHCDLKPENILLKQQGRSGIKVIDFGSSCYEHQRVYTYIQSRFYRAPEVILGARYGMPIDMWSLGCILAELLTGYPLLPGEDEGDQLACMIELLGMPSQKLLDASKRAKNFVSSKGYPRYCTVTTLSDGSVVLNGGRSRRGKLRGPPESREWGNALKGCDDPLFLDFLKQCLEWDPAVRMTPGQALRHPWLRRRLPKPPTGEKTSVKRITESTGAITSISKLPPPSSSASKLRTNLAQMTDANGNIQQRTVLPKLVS
Kind of assay: Binding affinity to DYRK2 (unknown origin) assessed as change in melting temperature of protein at 10 uM by Sypro-orange dye based DSF assay.

The target of assay [3] is T2, Dual specificity protein kinase CLK1 (Homo sapiens, UniProt P49759). Kind of assay: Binding affinity to CLK1 (unknown origin) assessed as change in melting temperature of protein at 10 uM by Sypro-orange dye based DSF assay.
Target sequence in this assay (P49759 whole entry, looked up): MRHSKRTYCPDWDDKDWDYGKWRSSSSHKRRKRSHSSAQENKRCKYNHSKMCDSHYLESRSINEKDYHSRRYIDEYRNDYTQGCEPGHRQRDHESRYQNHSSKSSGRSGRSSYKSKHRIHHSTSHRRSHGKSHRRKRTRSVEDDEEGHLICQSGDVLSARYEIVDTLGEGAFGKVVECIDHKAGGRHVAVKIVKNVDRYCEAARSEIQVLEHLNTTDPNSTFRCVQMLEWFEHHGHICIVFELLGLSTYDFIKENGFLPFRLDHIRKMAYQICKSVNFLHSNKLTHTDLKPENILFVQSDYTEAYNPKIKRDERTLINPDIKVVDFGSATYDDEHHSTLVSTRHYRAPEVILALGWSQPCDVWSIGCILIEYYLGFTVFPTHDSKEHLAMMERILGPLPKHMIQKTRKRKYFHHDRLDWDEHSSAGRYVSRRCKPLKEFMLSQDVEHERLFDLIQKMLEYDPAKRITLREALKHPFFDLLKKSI
Assay [4] addresses T3, Glycogen synthase kinase-3 beta (Homo sapiens, UniProt P49841). Kind of assay: Binding affinity to GSK3B (unknown origin) assessed as change in melting temperature of protein at 10 uM by Sypro-orange dye based DSF assay.
Target sequence in this assay (P49841 whole entry, looked up): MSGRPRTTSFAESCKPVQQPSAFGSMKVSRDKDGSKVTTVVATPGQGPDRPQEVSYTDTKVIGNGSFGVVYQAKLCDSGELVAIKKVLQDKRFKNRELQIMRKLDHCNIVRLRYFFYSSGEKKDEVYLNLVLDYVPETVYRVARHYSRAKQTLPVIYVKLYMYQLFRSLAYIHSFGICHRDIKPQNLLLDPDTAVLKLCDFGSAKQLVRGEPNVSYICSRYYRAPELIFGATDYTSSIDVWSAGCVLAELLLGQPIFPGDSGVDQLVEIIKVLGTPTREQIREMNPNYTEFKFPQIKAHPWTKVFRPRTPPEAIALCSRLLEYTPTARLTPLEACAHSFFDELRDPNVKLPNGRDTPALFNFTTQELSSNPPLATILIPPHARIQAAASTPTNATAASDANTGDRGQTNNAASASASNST
In assay [5] the target is T4, Dual specificity tyrosine-phosphorylation-regulated kinase 2 (Homo sapiens, UniProt Q92630).
T4 sequence (Q92630 whole entry): T1 sequence (whole entry)
Kind of assay: Inhibition of DYRK2 (unknown origin).

Assay [6] has as its target T5, Dual specificity tyrosine-phosphorylation-regulated kinase 3 (Homo sapiens, UniProt O43781).
T5 sequence (O43781 whole entry): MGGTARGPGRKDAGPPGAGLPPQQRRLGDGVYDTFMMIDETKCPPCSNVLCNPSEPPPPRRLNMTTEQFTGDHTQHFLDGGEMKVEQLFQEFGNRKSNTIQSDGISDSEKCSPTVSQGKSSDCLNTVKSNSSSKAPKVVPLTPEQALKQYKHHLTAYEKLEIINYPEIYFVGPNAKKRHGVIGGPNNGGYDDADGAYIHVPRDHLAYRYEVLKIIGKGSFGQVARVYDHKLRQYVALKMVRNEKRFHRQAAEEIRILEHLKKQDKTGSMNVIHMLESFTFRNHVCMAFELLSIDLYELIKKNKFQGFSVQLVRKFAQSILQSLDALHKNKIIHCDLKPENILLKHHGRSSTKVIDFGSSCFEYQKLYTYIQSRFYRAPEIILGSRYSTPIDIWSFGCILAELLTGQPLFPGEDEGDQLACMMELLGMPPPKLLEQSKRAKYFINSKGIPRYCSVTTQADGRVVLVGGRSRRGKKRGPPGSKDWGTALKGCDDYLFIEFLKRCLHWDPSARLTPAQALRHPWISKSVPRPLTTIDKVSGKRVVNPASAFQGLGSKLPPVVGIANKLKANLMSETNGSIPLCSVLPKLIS
Kind of assay: Inhibition of DYRK3 (unknown origin).

Assay [7] addresses T6, Dual specificity tyrosine-phosphorylation-regulated kinase 4 (Homo sapiens, UniProt Q9NR20).
T6 sequence (Q9NR20 whole entry): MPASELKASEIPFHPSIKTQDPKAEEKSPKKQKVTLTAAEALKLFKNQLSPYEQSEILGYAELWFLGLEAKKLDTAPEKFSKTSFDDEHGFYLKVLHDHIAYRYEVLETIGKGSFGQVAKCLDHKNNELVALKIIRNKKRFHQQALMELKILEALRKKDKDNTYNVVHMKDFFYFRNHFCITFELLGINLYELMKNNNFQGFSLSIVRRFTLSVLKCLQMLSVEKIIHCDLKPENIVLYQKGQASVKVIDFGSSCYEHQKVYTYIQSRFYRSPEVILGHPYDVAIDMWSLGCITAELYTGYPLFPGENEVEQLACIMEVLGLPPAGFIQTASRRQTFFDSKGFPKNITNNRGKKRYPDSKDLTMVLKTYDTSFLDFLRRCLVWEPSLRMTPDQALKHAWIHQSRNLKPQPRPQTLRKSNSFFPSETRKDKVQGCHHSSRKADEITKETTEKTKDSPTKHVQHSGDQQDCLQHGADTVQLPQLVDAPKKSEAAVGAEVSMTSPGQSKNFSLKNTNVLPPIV
Description: Inhibition of DYRK4 (unknown origin).

The target in assay [8] is T2, Dual specificity protein kinase CLK1. Description: Inhibition of CLK1 (unknown origin).
Target sequence in this assay (P49759 whole entry): as the sequence (P49759 whole entry, looked up) above
The target of assay [9] is Dual specificity protein kinase CLK2 (Homo sapiens, UniProt P49760). Description: Inhibition of CLK2 (unknown origin).
Assay [10] deals with Dual specificity protein kinase CLK3 (Homo sapiens, UniProt P49761). Description: Inhibition of CLK3 (unknown origin).
The target of assay [11] is Dual specificity protein kinase CLK4 (Homo sapiens, UniProt Q9HAZ1). Kind of assay: Inhibition of CLK4 (unknown origin).
Assay [12] addresses Glycogen synthase kinase-3 alpha (Homo sapiens, UniProt P49840). Kind of assay: Inhibition of GSK3A (unknown origin).
In assay [13] the target is T3, Glycogen synthase kinase-3 beta. Description: Inhibition of GSK3B (unknown origin).
Target sequence in this assay (P49841 whole entry): as the sequence (P49841 whole entry, looked up) above

Chain of Dual specificity protein kinase CLK3 (P49761 whole entry): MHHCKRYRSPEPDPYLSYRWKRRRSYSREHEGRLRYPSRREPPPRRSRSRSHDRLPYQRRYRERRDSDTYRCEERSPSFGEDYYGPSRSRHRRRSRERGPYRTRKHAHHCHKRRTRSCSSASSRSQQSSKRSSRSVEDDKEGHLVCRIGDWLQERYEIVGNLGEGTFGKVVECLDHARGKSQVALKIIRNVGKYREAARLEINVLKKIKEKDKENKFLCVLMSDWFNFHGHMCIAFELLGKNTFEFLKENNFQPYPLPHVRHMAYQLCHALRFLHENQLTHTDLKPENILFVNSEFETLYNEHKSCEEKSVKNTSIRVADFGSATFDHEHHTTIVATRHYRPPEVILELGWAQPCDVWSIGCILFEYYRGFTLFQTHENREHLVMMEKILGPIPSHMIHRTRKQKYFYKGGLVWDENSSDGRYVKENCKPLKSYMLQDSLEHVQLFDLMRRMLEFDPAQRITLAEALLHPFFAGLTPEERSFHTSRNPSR
Chain of Glycogen synthase kinase-3 alpha (P49840 whole entry): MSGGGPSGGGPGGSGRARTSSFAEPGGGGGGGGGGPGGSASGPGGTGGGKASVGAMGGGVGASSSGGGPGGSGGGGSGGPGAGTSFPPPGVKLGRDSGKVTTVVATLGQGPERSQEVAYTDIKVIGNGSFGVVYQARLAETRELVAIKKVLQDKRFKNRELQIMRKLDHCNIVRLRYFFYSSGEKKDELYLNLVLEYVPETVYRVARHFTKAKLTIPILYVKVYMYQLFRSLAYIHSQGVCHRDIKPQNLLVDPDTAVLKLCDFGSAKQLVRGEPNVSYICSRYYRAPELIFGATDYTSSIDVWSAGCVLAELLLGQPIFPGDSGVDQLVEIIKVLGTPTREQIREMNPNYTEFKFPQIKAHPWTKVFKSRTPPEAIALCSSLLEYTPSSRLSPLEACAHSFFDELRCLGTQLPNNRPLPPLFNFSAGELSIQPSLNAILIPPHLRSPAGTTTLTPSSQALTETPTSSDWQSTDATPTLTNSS
Chain of Dual specificity protein kinase CLK4 (Q9HAZ1 whole entry): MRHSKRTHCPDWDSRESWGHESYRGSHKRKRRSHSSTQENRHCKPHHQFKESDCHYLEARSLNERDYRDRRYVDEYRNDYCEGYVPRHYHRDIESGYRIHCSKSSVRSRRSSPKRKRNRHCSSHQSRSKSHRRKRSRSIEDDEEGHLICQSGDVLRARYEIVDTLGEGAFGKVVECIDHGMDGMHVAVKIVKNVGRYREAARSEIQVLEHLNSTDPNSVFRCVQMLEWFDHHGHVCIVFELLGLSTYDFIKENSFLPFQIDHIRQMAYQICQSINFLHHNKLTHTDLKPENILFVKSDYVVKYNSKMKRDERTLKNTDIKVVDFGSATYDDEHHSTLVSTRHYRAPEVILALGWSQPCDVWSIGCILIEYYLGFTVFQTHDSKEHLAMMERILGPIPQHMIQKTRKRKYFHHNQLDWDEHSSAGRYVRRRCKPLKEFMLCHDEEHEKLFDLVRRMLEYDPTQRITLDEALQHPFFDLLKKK
Chain of Dual specificity protein kinase CLK2 (P49760 whole entry): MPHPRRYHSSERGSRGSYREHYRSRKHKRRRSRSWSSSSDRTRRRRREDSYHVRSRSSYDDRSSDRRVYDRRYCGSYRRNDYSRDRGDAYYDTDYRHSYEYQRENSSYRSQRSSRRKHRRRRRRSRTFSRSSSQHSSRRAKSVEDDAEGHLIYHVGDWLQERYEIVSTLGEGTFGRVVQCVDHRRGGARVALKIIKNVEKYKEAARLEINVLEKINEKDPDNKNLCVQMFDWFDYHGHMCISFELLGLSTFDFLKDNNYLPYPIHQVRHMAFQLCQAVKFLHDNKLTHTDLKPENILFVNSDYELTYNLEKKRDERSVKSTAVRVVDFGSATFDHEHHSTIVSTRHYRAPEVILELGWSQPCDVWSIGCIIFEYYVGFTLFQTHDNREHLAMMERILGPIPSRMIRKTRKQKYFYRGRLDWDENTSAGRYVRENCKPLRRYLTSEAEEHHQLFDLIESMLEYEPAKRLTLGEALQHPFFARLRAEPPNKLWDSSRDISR

With `COC(=N)c1nc2ccc3ncnc(Nc4ccc(OC)cc4F)c3c2s1`, the thermal shift (ΔTm) in assay [1] came out at 9 °C; in assay [2] it was 5 °C; in [3], 5 °C; in assay [4], 5 °C. Also, the IC50 was found to be 3.16 nM in assay [5]; 21.1 nM in [6]; 1570 nM in [7] (read-out: IC50); 11 nM in assay [8]; 32.5 nM in assay [9]; 1420 nM in assay [10]. The IC50 in [11] worked out at 32 nM; in assay [12], 9.11 nM; in assay [13], 143 nM.
In the case of `COC(=N)c1nc2ccc3ncnc(Nc4ccc(Cl)cc4Cl)c3c2s1`, the shift in melting temperature (ΔTm) was found to be 9 °C in [1], 5 °C in assay [2], 5 °C in [3] and 5 °C in assay [4]. The concentration for half-maximal inhibition (IC50) in [5] was 10.8 nM; in assay [6] it was 93.2 nM; in assay [7] it was “Not Active”; in [8], 22.8 nM; in assay [9], 88.8 nM; in [10], over 10000 nM. For the same compound, the IC50 in assay [11] is 59 nM; in assay [12], 7.44 nM; in [13] it was 221 nM.
